Consider 75 compounds from PubChem BioAssay AID1996.

Converted amounts (≈) assume the structure as drawn.

For this data set the following is noted: buffer; pH 7.4; 200.0 µM.
For `Cc1nc(SCC(=O)NCCN2C(=O)CSC2=O)nc(C)c1C`, the solubility (kinetic) was greater than 53.2 µg/mL. Turning to `CCCCc1ccc(NC2=NCCCS2)cc1`, the solubility (kinetic) amounted to 26.4 µg/mL (≈ 106 µM).

For `CC(=O)c1cn(-c2ccc([N+](=O)[O-])cc2)c(=O)n(C)c1=O`, the solubility (kinetic) was greater than 43.4 µg/mL. On to `COc1ccc(NC(=O)c2cc(F)c(F)cc2Cl)cc1Cl`, for which the kinetic solubility was less than 0.7 µg/mL. With `Cc1ccccc1NC(=O)c1cccc(NC(=O)c2ccco2)c1`, the solubility (kinetic) is greater than 48.1 µg/mL. Compound `CCOc1ccc(C(=O)N2CCc3ccccc32)cc1OCC` returned a solubility (kinetic) of 40.5 µg/mL (≈ 130 µM). Take `CCCC1NC(C(=O)O)Cc2c1[nH]c1ccccc21` (stereo not given): the kinetic solubility is 37.3 µg/mL (≈ 144 µM).

Consider `Cc1ccc(C(=O)Nc2ccccc2N2CCCC2)s1`, for which the solubility (kinetic) was greater than 43 µg/mL. As for `O=C1CN(C(=O)COC(=O)CCc2ccccc2)c2ccccc2N1`, the solubility (kinetic) is greater than 50.8 µg/mL. For `Cc1ccc(Cn2c(=O)n(C)c(=O)c3sccc32)cc1` the value was 1.2 µg/mL (≈ 4.19 µM); for `CN(C(=O)COc1cccc(C#N)c1)C1CCS(=O)(=O)C1` (stereo not given), greater than 46.3 µg/mL; for `COc1ccc(/C=N/S(=O)(=O)c2ccc(C)cc2)cc1`, 41 µg/mL (≈ 142 µM). Turning to `O=C(NC(=S)Nc1cccc([N+](=O)[O-])c1)C1CCCCC1`, the solubility (kinetic) was less than 0.2 µg/mL.

`CC(C)CN1C(=O)N(c2ccc(Cl)cc2)C(C)(O)CC1(C)C` (stereo not given): the solubility (kinetic) worked out at 4.1 µg/mL (≈ 12.6 µM). In turn, `O=C(CN1C(=O)COc2ccccc21)N1CCCC1` showed a kinetic solubility greater than 39 µg/mL.

On to `CN1CCN(C(=O)COc2ccc3ccccc3c2)CC1`, for which the kinetic solubility was greater than 42.7 µg/mL.

Turning to `COc1ccc(NC(=O)CCCc2ccccc2)c(OC)c1`, the kinetic solubility worked out at 36.4 µg/mL (≈ 122 µM). Compound `Cc1ccccc1OC(C)C(=O)NCCCN1CCOCC1` (stereo not given) returned a kinetic solubility of 41.5 µg/mL (≈ 135 µM). On to `NC(=O)c1cc(NC(=O)COC(=O)CCCN2C(=O)c3cccc4cccc(c34)C2=O)cc(C(N)=O)c1`, for which the kinetic solubility was 4.9 µg/mL (≈ 9.75 µM).

`CC(C)CN(Cc1cc(=O)oc2cc3c(cc12)CCCC3)CC(C)C` gave a kinetic solubility of 1.1 µg/mL (≈ 3.22 µM). `O=C(Nc1cnccn1)c1ccc(F)cc1Cl` came in with a kinetic solubility greater than 37.7 µg/mL. Turning to `O=C(CN1CCN(c2ccccn2)CC1)Nc1cccc(F)c1`, the kinetic solubility was 19.9 µg/mL (≈ 63.3 µM). Compound `CC1CCN(C(=O)COc2cccc3c2CCN(Cc2ccccc2)C3=O)CC1` had a solubility (kinetic) of 55.9 µg/mL (≈ 142 µM).

As for `COc1ccccc1OCC(=O)Nc1ccncc1`, the kinetic solubility was greater than 38.7 µg/mL. The compound `CC1(C(=O)Nc2ccc3c(c2)OCO3)CC1(Cl)Cl` (stereo not given) gave a solubility (kinetic) greater than 43.2 µg/mL. As to `Cc1csc(NC(=O)c2cc(=O)[nH]c3ccccc23)n1`, the solubility (kinetic) stood at 10.5 µg/mL (≈ 36.8 µM).

With `Cc1cc(C)nc(Sc2ncnc(N)c2[N+](=O)[O-])n1`, the solubility (kinetic) is greater than 41.7 µg/mL.

`CCn1cc(C(=S)N2CCC(C(N)=O)CC2)c2ccccc21` gave a solubility (kinetic) of 38.7 µg/mL (≈ 123 µM). Consider `CC(C)OC(=O)NCCOC(=O)Nc1ccc(Cl)cc1`, for which the solubility (kinetic) is 36.5 µg/mL (≈ 121 µM). With `O=C(COC(=O)c1cc(Cl)ccc1Cl)NC1CCCC1` the figure was 23.8 µg/mL (≈ 75.3 µM). `CN(C)c1ccc(NC(=O)c2ccc3nc[nH]c3c2)cc1` showed a kinetic solubility greater than 42 µg/mL. The compound `CSc1ccccc1C(=O)NCCCn1ccnc1` came in with a solubility (kinetic) greater than 41.3 µg/mL. For `COc1ccc(S(=O)(=O)N2CCCCC2)cc1NC(=O)C1CC(=O)N(Cc2ccco2)C1` (stereo not given) the value was greater than 69.2 µg/mL; for `COc1cc(C(=O)NNC(=O)C2CCCC2)cc(OC)c1OC`, greater than 48.4 µg/mL; for `Cc1ccc(C(=O)N2CCN(Cc3ccc4c(c3)OCO4)CC2)c(Cl)c1`, 54.4 µg/mL (≈ 146 µM).

Compound `Cc1ccc(C(=O)NCCNC(=O)c2cccnc2)cc1` yielded a kinetic solubility of 40 µg/mL (≈ 141 µM). With `O=C(c1ccc2ccccc2n1)N1CCN(c2ccccn2)CC1` the figure was greater than 47.8 µg/mL; with `CC(C)n1cc(NC(=O)COc2ccccc2Cl)cn1`, greater than 44.1 µg/mL; with `N#Cc1ccc(OCC(O)CS(=O)(=O)c2ccccc2)cc1` (stereo not given), 46.6 µg/mL (≈ 147 µM).

Regarding `O=Cc1cccn1-c1ncc(Br)cn1`, the kinetic solubility is 30.6 µg/mL (≈ 121 µM).

`COc1cc(OC)c(OC)cc1CNCc1ccc2c(c1)OCO2` showed a kinetic solubility greater than 49.7 µg/mL. `CN1CCCN(C(=O)COc2ccccc2)CC1` yielded a solubility (kinetic) greater than 37.2 µg/mL. `C=CCNC(=O)c1cnc(-c2ccccc2)nc1-c1ccccc1` had a kinetic solubility of 0.7 µg/mL (≈ 2.22 µM). Regarding `Cc1ccc(N2C(=O)CCC(C(=O)O)C2c2cccs2)cc1` (stereo not given), the solubility (kinetic) was found to be 46.3 µg/mL (≈ 147 µM). Turning to `N#Cc1ccc(C(=O)N(Cc2ccccc2)c2ccccc2)cc1`, the kinetic solubility is 26.4 µg/mL (≈ 84.5 µM). For `COc1ccccc1NC(=O)COC(=O)c1[nH]c(=O)[nH]c(=O)c1N`, the solubility (kinetic) was greater than 50.1 µg/mL. For the compound `O=C(O)c1ccc(N2C(=O)CSC2=S)cc1`, the solubility (kinetic) is greater than 38 µg/mL. For `O=C1CC(Sc2ncccc2C(=O)O)C(=O)N1` (stereo not given) the value was greater than 37.8 µg/mL; for `CCCN1CCN(S(=O)(=O)c2cn(C)nc2C)CC1`, greater than 43 µg/mL; for `COc1ccc(S(=O)(=O)n2cccc2)cc1OC`, 11.8 µg/mL (≈ 44.1 µM). On to `Cc1ccccc1OC(=O)c1cccnc1`, for which the kinetic solubility is 28.4 µg/mL (≈ 133 µM). For the compound `O=C(CSCc1c(F)cccc1Cl)NCCc1ccccc1`, the solubility (kinetic) amounted to 40.2 µg/mL (≈ 119 µM). As to `O=C1NC2(CCCCCC2)N=C1c1ccc(Br)cc1`, the solubility (kinetic) came to 0.9 µg/mL (≈ 2.8 µM). On to `COc1ccc(C(=O)NC2=Nc3ccccc3N=C(C)C2c2ccccc2)cc1` (stereo not given), for which the solubility (kinetic) was found to be 22.6 µg/mL (≈ 58.9 µM).

`Cc1ccc(NC(=O)c2c(-c3ccccc3Cl)noc2C)nc1` returned a solubility (kinetic) of 0.3 µg/mL (≈ 0.915 µM). For `O/N=C/c1ccc2ccccc2n1` the value was greater than 25.8 µg/mL. With `CCOc1ccccc1NC(=O)c1cccc(NC(=O)C2CCCC2)c1`, the solubility (kinetic) is 13.4 µg/mL (≈ 38 µM). As for `CC(NC(=O)C(Cc1ccccc1)n1cccc1)c1ccccc1` (stereo not given), the solubility (kinetic) was found to be 11.6 µg/mL (≈ 36.4 µM).

For the compound `CCc1ccccc1NC(=O)c1ccc(S(=O)(=O)N2CCCC2)cc1`, the solubility (kinetic) was determined as 12.2 µg/mL (≈ 34 µM). `O=C(CN1CCN(C(=O)c2ccccc2)CC1)Nc1ccccc1`: the solubility (kinetic) was greater than 48.5 µg/mL. `O=C(Nc1nc2ccccc2[nH]1)c1ccc(OC(F)F)cc1` registered a solubility (kinetic) of 2.4 µg/mL (≈ 7.91 µM).

In turn, `Cc1sc2ncnc(Nc3ccc(O)cc3)c2c1C` showed a kinetic solubility of 1.7 µg/mL (≈ 6.27 µM). In turn, `CCn1c(C)cc(C(=O)COC(=O)c2cccnc2SC)c1C` displayed a solubility (kinetic) of 3.7 µg/mL (≈ 11.1 µM). With `O=C(COC(=O)/C=C/c1cccc(F)c1)NC(=O)NC1CCCC1` the figure was 4.9 µg/mL (≈ 14.7 µM).

Consider `Cc1cc(C)cc(NC(=S)N(C)C)c1`, for which the kinetic solubility was 30.7 µg/mL (≈ 147 µM).

`CCOc1ncccc1C(=O)OCC(=O)Nc1cc(C(C)(C)C)ccc1OC` registered a kinetic solubility of 1.5 µg/mL (≈ 3.88 µM). The compound `CC1CCC(NC(=O)COC(=O)c2cccnc2Cl)CC1` (stereo not given) yielded a kinetic solubility greater than 46.6 µg/mL. Compound `Cc1nc(C2COc3ccccc3O2)sc1C(=O)O` (stereo not given) yielded a kinetic solubility of 35 µg/mL (≈ 126 µM). For `CC(CC(=O)NCCc1ccc(S(N)(=O)=O)cc1)c1ccccc1` (stereo not given), the kinetic solubility is greater than 52 µg/mL.

Compound `CCCN1CCC[C@H](c2cccc(O)c2)C1.Cl` returned a kinetic solubility greater than 38.4 µg/mL. `CN1CCCC(OC(=O)c2ccc(C#N)cc2)C1.Cl` (stereo not given) came in with a solubility (kinetic) greater than 42.1 µg/mL.

In the case of `COc1ccc(C(=O)CN2CCN(c3cc(C)nc4ccccc34)CC2)cc1`, the kinetic solubility came out at 45.9 µg/mL (≈ 122 µM). As to `CC1CC(NC(=O)CC#N)CC(C)(C)C1` (stereo not given), the solubility (kinetic) is greater than 31.2 µg/mL. `COc1ccc(OC)c(S(=O)(=O)NCc2ccccn2)c1` gave a solubility (kinetic) greater than 46.3 µg/mL. `O=C(Nc1cccc(C(F)(F)F)c1)c1c(O)c2ccccc2[nH]c1=O` yielded a kinetic solubility of less than 0.4 µg/mL.

For orientation: solubility (kinetic) means the concentration staying in solution when a stock, usually in DMSO, is diluted into the medium.
